Reference: patent publication US5229419A, “Chemotherapeutically active acetogenins” (Purdue Research Foundation, priority 1992, dated 1993)
Converted amounts (≈) assume the structure as drawn.

Assays:
[1] = tested on: brine shrimp (Artemia salina Leach); assay: whole plant or invertebrate; format: in vivo; settings: 24 hrs, read-out: BST LC50
Method: The extracts, fractions, and isolated compounds were routinely evaluated for lethality to brine shrimp larvae (BST). The LC50 of brine shrimp (Artemia salina Leach) was determined by substantially the same method described by Meyer et al. [Planta Med., 45: 31-34 (1982)]. The test sample was dissolved in solvent and added to 2-dram vials in an amount to provide 1000, 100, 10, 1, etc. p.p.m. of material in the final brine preparation, assuming complete miscibility in the brine. The vials were dried in vacuo, and artificial sea water, prepared from a commercial salt mixture, was added. Ten brine shrimp larva (nauplii), 48-72 hrs. old, were introduced to the vial, and the volume was made up to 5 ml. with the sea water. After 24 hrs., the percent mortality was computed. Subsequently, LC50 values and 95% confidence limits were calculated by a Finney probit analysis to permit comparison of potencies of extracts and fractions.
(§1) Anticancer activity is a potential use even for the crude extract. The bioassay results for the lethality of brine shrimp (BST), the inhibition of crown gall tumors on potato discs (PD), the reversal in morphology of db-cAMP induced AC glioma cells from that of mature, differentiated astrocytes to that of immature AC glioma cells (mouse brain cells) (9ASK), the dose that inhibits cell growth to one-half that of untreated poorly differentiated human epidermic carcinoma (9KB), the dose that inhibits cell growth to one-half that of a methylcholanthrene-induced lymphoid neoplasm in a DBA/2 mouse (9PS), and the percent displacement in a protein kinase C test for initial extract fractions are shown in Table 1. Obviously, the bioactivity is concentrated in F005.

[2] = tested on: SK-MES-1; assay: NCI in vitro cytotoxicity, non-small cell lung cancer; format: cell-based; settings: Homo sapiens
[3] = tested on: H125; assay: as above; format: cell-based; settings: Homo sapiens
[4] = tested on: H460; assay: as above; format: cell-based; settings: Homo sapiens
[5] = tested on: LOVO; assay: NCI in vitro cytotoxicity, colon cancer; format: cell-based; settings: Homo sapiens
[6] = tested on: SK-MEL5; assay: NCI in vitro cytotoxicity, melanoma; format: cell-based; settings: Homo sapiens, SK-MEL-5
[7] = tested on: H69; assay: NCI in vitro cytotoxicity, small cell lung cancer; format: cell-based; settings: Homo sapiens
[8] = tested on: SNB-75; assay: NCI in vitro cytotoxicity, CNS cancer; format: cell-based; settings: Homo sapiens
[9] = tested on: OVCAR-8; assay: NCI in vitro cytotoxicity, ovarian cancer; format: cell-based; settings: Homo sapiens
[10] = tested on: human tumor cell line panel; assay: NCI human tumor cell line panel, overall; format: cell-based; settings: Table 6 summary
[11] = tested on: EKV-X; assay: NCI in vitro cytotoxicity, non-small cell lung cancer; format: cell-based; settings: Homo sapiens, EKVX
[12] = tested on: OVCAR-3; assay: NCI in vitro cytotoxicity, ovarian cancer; format: cell-based; settings: Homo sapiens
[13] = tested on: H23; assay: NCI in vitro cytotoxicity, non-small cell lung cancer; format: cell-based; settings: Homo sapiens
[14] = tested on: K562; assay: NCI in vitro cytotoxicity, leukemia; format: cell-based; settings: Homo sapiens
[15] = tested on: UO-31; assay: NCI in vitro cytotoxicity, renal cancer; format: cell-based; settings: Homo sapiens
[16] = tested on: A704; assay: NCI in vitro cytotoxicity, renal cancer; format: cell-based; settings: Homo sapiens
[17] = tested on: protein tyrosine kinase; assay: protein tyrosine kinase test; format: biochemical
[18] = tested on: U251; assay: NCI in vitro cytotoxicity, CNS cancer; format: cell-based; settings: Homo sapiens, U-251
[19] = tested on: HOLT-4; assay: NCI in vitro cytotoxicity, leukemia; format: cell-based; settings: Homo sapiens
[20] = tested on: RPMI-7951; assay: NCI in vitro cytotoxicity, melanoma; format: cell-based; settings: Homo sapiens
[21] = tested on: HOP-62; assay: NCI in vitro cytotoxicity, non-small cell lung cancer; format: cell-based; settings: Homo sapiens
[22] = tested on: H82; assay: NCI in vitro cytotoxicity, small cell lung cancer; format: cell-based; settings: Homo sapiens
[23] = tested on: SN12-K1; assay: NCI in vitro cytotoxicity, renal cancer; format: cell-based; settings: Homo sapiens, SN12K1
[24] = tested on: DLD-1; assay: NCI in vitro cytotoxicity, colon cancer; format: cell-based; settings: Homo sapiens
[25] = tested on: HCC-2998; assay: NCI in vitro cytotoxicity, colon cancer; format: cell-based; settings: Homo sapiens
[26] = tested on: OVCAR-5; assay: NCI in vitro cytotoxicity, ovarian cancer; format: cell-based; settings: Homo sapiens
[27] = tested on: HL-60 TB; assay: NCI in vitro cytotoxicity, leukemia; format: cell-based; settings: Homo sapiens
[28] = tested on: SK-MEL2; assay: NCI in vitro cytotoxicity, melanoma; format: cell-based; settings: Homo sapiens, SK-MEL-2
[29] = tested on: 9KB (human nasopharyngeal carcinoma); assay: 9KB cytotoxicity; format: cell-based
Method: Occasional checks in the potato disc (PD) assay assured us that antitumor activity was present [Ferrigni et al., J. Nat. Prod., 45; 679-686 (1982)]. Cytotoxicity tests were performed at the Purdue Cell Culture Laboratory, Purdue Cancer Center, using standard protocols for 9KB (human nasopharyngeal carcinoma) and 9PS (a chemically-induced murine lymphocytic leukemia) [Suffness et al., Methods In Cancer Research. Vol. 16: 73 (1979), V. T. DeVita, Jr. and H. Busch eds., Academic Press, New York], 9ASK (astrocytoma reversal) [Lgarashi et al., Cell Struct. and Funct., 3: 107 (1978)], A-549 (human lung carcinoma) [Giard et al., J. Nat. Cancer Inst., 51: 1417-1423 (1973)], and HT-29 (human colon adenocarcinoma) [Fogh J. (ed.), Human Tumor Cells, In Vitro, Plenum Press, New York: 115-159 (1975)].
as §1

[30] = tested on: H322; assay: NCI in vitro cytotoxicity, non-small cell lung cancer; format: cell-based; settings: Homo sapiens

CCCCCCCCCCC(O)C1CCC(C2CCC(C(O)CCCCCCCCCCC(O)CC3=CC(C)OC3=O)O2)O1 (centres unmarked) [Bullatacin]
LC50 [1]: 0.00159 µg/mL (≈ 0.00255 µM) | IC50 [2]: > 0.0924 µg/mL | IC90 [2]: > 0.0924 µg/mL | IC50 [3]: 2.4 µg/mL (≈ 3.85 µM) | IC90 [3]: > 9.26 µg/mL | IC50 [4]: 0.0287 ng/mL (≈ 4.61e-05 µM) | IC90 [4]: 0.000185 µg/mL (≈ 0.000297 µM) | IC50 [5]: 0.000915 µg/mL (≈ 0.00147 µM) | IC90 [5]: 4.69 µg/mL (≈ 7.53 µM) | IC50 [6]: > 0.000926 µg/mL | IC90 [6]: 5.22 µg/mL (≈ 8.38 µM) | IC50 [7]: 2.44 µg/mL (≈ 3.92 µM) | IC90 [7]: 7.52 µg/mL (≈ 12.1 µM) | IC50 [8]: 3.35 µg/mL (≈ 5.38 µM) | IC90 [8]: > 9.26 µg/mL | IC50 [9]: 2.57 µg/mL (≈ 4.13 µM) | IC90 [9]: 7.65 µg/mL (≈ 12.3 µM) | tumor types most sensitive in panel [10]: best active for certain CNS cancers, non-small cell lung cancers, leukemias, and ovarian cancers | IC50 [11]: 0.000115 µg/mL (≈ 0.000185 µM) | IC90 [11]: > 0.0926 µg/mL | IC50 [12]: > 0.0924 µg/mL | IC90 [12]: > 0.0924 µg/mL | IC50 [13]: 2.38 µg/mL (≈ 3.82 µM) | IC90 [13]: 9.21 µg/mL (≈ 14.8 µM) | IC50 [14]: < 0.000926 µg/mL | IC90 [14]: 4.5 µg/mL (≈ 7.22 µM) | IC50 [15]: 1.94 µg/mL (≈ 3.11 µM) | IC90 [15]: > 9.26 µg/mL | IC50 [16]: 1.36 µg/mL (≈ 2.18 µM) | IC90 [16]: 8 µg/mL (≈ 12.8 µM) | result in the protein tyrosine kinase test [17]: negative result | IC50 [18]: < 0.00924 ng/mL | IC90 [18]: 0.0437 ng/mL (≈ 7.02e-05 µM) | IC50 [19]: 1.41 µg/mL (≈ 2.26 µM) | IC90 [19]: 4.72 µg/mL (≈ 7.58 µM) | IC50 [20]: 2.73 µg/mL (≈ 4.38 µM) | IC90 [20]: 7.71 µg/mL (≈ 12.4 µM) | IC50 [21]: < 0.000926 µg/mL | IC90 [21]: 5.13 µg/mL (≈ 8.24 µM) | IC50 [22]: 1.99 µg/mL (≈ 3.19 µM) | IC90 [22]: 7.14 µg/mL (≈ 11.5 µM) | IC50 [23]: 0.0224 ng/mL (≈ 3.6e-05 µM) | IC90 [23]: 0.000287 µg/mL (≈ 0.000461 µM) | IC50 [24]: 2.76 µg/mL (≈ 4.43 µM) | IC90 [24]: 8.62 µg/mL (≈ 13.8 µM) | IC50 [25]: 4.05 µg/mL (≈ 6.5 µM) | IC50 [26]: 8.8 µg/mL (≈ 14.1 µM) | IC90 [26]: > 9.26 µg/mL | IC50 [27]: < 0.000926 µg/mL | IC90 [28]: 8.64 µg/mL (≈ 13.9 µM) | 9KB ED50 [29]: 6.188e-11 ng/mL | IC50 [30]: < 0.000926 µg/mL | IC90 [30]: > 9.26 µg/mL
